Test results reported in patent US20030229125A1, “Herbicidal substituted pyridines, their preparation, and their use as herbicides and plant growth regulators” (priority 2001, published 2003).

Tests used:
[1] = test system: Sinapis alba, Chrysanthemum segetum, Avena sativa, Stellaria media, Echinochloa crus-galli, Lolium multiflorum, Setaria spp., Abutilon theophrasti, Amaranthus …; experiment: Pre-emergence effect on weeds (greenhouse pot test, visual scoring); assay type: in vivo, mono- and dicotyledonous weed plants; details: application rate of 1 kg or less of active substance per hectare; visually scored after 3 to 4 weeks vs untreated controls
Text: Seeds or rhizome pieces of mono- and dicotyledonous weed plants were placed in sandy loam soil in plastic pots and covered with soil. The compounds according to the invention, formulated in the form of wettable powders or emulsion concentrates, were then applied to the soil cover in the form of aqueous suspensions or emulsions at an application rate of 600 to 800 l of water/ha (converted), in various dosages. After the treatment, the pots were placed in a greenhouse and kept under good growth conditions for the weeds. After the test plants had emerged, the damage to the plants or the negative effect on the emergence was visually scored after a test period of 3 to 4 weeks by comparison with untreated controls. As shown by the test results, the compounds according to the invention have good herbicidal pre-emergence activity against a broad spectrum of week grasses and broad-leaved weeds.

[2] = test system: Sinapis alba, Echinochloa crus-galli, Lolium multiflorum, Chrysanthemum segetum, Setaria spp., Abutilon theophrastic, Amaranthus retroflexus, Panicum miliaceum …; experiment: Post-emergence effect on weeds (greenhouse pot test, visual scoring); assay type: in vivo, mono- and dicotyledonous weeds; details: application rate of 1 kg or less of active substance per hectare; treated at three-leaf stage; scored visually after about 3 to 4 weeks
Description: Seeds or rhizome pieces of mono- and dicotyledonous weeds were placed in sandy loam soil in plastic pots, covered with soil and grown in a greenhouse under good growth conditions. Three weeks after sowing, the test plants were treated at the three-leaf stage. The compounds according to the invention, formulated as wettable powders or emulsion concentrates, were sprayed, at various dosages, onto the green parts of the plants at an application rate of 600 to 800 l of water/ha (converted). After the test plants had remained in the greenhouse for about 3 to 4 weeks under optimum growth conditions, the effect of the preparations was scored visually by comparison with untreated controls. The agents according to the invention also have good herbicidal activity post-emergence against a broad spectrum of economically important weed grasses and broad-leaved weeds.

## CCN(Cc1cccc(Oc2cc(C(F)(F)F)nn2C)n1)S(C)(=O)=O [Example 4]
[1]
  herbicidal activity pre-emergence against weed plants: very good herbicidal activity
[2]
  herbicidal activity post-emergence against weed plants: very good herbicidal activity
